The text below walks through data of patent US20240389596A1, “INSECT, ACARINA AND NEMATODE PEST CONTROL” (priority 2021, published 2024).

This data set has as its system Spodoptera littoralis (Egyptian cotton leaf worm). Description: Spodoptera littoralis (Egyptian cotton leaf worm) feeding/contact activity assay on cotton leaf discs. Format: in vivo. The settings on record: for Mortality (%) Observed (%): single active ingredient, L1 larvae, 3 days after infestation; for Mortality (%) Expected (%): component B alone, value printed in the Expected column. The text has this:
A synergistic effect exists whenever the action of an active ingredient combination is greater than the sum of the actions of the individual components. The action to be expected E for a given active ingredient combination obeys the so-called COLBY formula and can be calculated as follows (COLBY, S. R. “Calculating synergistic and antagonistic responses of herbicide combination”. Weeds, Vol. 15, pages 20-22 1967):
ppm=milligrams of active ingredient (a.i.) per liter X=% action by first active ingredient using p ppm of the active ingredient Y=% action by second active ingredient using q ppm of the active ingredient.
According to Colby, the expected (additive) action of active ingredients A+B using p+q ppm of active ingredient is
If the action actually observed O is greater than the expected action E, then the action of the combination is super-additive, i.e. there is a synergistic effect. In mathematical terms, synergism corresponds to a positive value for the difference of (O-E). In the case of purely complementary addition of activities (expected activity), said difference (O-E) is zero. A negative value of said difference (O-E) signals a loss of activity compared to the expected activity.
The synergistic biological activity of combinations of component (A) and component (B) as disclosed herein was assessed using a Spodoptera littoralis (Egyptian cotton leaf worm) feeding/contact activity assay. Cotton leaf discs were placed onto agar in 24-well microtiter plates and sprayed with aqueous test solutions prepared from 10′000 ppm DMSO stock solutions. After drying the leaf discs were infested with L1 larvae. The samples were assessed for mortality 3 days after infestation.

As to `CNC(=O)c1cc(Cl)cc(C)c1NC(=O)c1cc(Br)nn1-c1ncccc1Cl` [B-46, chlorantraniliprole], the “Mortality (%) Observed (%)” value ([AI] 0.062 mg/L) worked out at 0%, the “Mortality (%) Observed (%)” value ([AI] 0.125 mg/L) is 0%, the “Mortality (%) Observed (%)” value ([AI] 0.25 mg/L) was determined as 0% and the “Mortality (%) Observed (%)” value ([AI] 0.5 mg/L) is recorded as 100%.

Turning to `CCS(=O)(=O)c1cccnc1-c1cnc(OCC(F)(F)C(F)(F)F)cn1` [B-10, 2-(3-ethylsulfonyl-2-pyridyl)-5-(2,2,3,3,3-pentafluoropropoxy)pyrazine], the “Mortality (%) Observed (%)” value runs as follows: ([AI] 0.625 mg/L) 0%; ([AI] 1.25 mg/L) 10%; ([AI] 2.5 mg/L) 50%; ([AI] 5 mg/L) 100%; ([AI] 10 mg/L) 100%.

As to `CC(c1ccc(C(F)(F)F)nc1)S(C)(=O)=NC#N` (stereo not drawn) [B-55, sulfoxaflor], the “Mortality (%) Observed (%)” value reads like this: ([AI] 62.5 mg/L) 0%; ([AI] 125 mg/L) 0%; ([AI] 250 mg/L) 10%.

On to `CCN(C(=O)c1cnn(C(C)C(C)C)c1C)c1ccnnc1` (stereo not drawn) [B-17, dimpropyridaz], for which the “Mortality (%) Observed (%)” value stood at 0% ([AI] 15.625 mg/L), 0% ([AI] 31.25 mg/L), 0% ([AI] 62.5 mg/L) and 0% ([AI] 125 mg/L).

Take `C[n+]1c([O-])c(-c2ccccc2)c(=O)n2c1SC[C@@H]2c1cnc(Cl)s1` [B-4, fenmezoditiaz]: the “Mortality (%) Observed (%)” value is, setting by setting: ([AI] 15.625 mg/L) 0%; ([AI] 31.25 mg/L) 0%; ([AI] 62.5 mg/L) 0%.

For `O=C(Nc1ccc(F)c(NC(=O)C(F)F)c1F)c1cc(NC(=O)[C@H]2[C@H](c3cc(C(F)(F)F)cc(C(F)(F)F)c3)C2(Cl)Cl)ccc1Cl` [A-1], the “Mortality (%) Observed (%)” value runs as follows: ([AI] 0.016 mg/L) 0%; ([AI] 0.031 mg/L) 0%; ([AI] 0.062 mg/L) 0%; ([AI] 0.125 mg/L) 0%; ([AI] 0.25 mg/L) 80%; ([AI] 0.5 mg/L) 100%.

`O=c1c(-c2cccc(C(F)(F)F)c2)c([O-])[n+](Cc2cncnc2)c2ccccn12` [B-42, triflumezopyrim]: the “Mortality (%) Observed (%)” value is, setting by setting: ([AI] 15.625 mg/L) 0%; ([AI] 31.25 mg/L) 0%; ([AI] 62.5 mg/L) 0%; ([AI] 125 mg/L) 20%; ([AI] 250 mg/L) 20%.

As to `Cc1cc(Cl)cc(C)c1C1=C(O)C2(CCC3(CC2)OCCO3)NC1=O` [B-18, spidoxamat], the “Mortality (%) Expected (%)” value runs as follows: ([AI] 7.812 mg/L) 0%; ([AI] 15.625 mg/L) 0%; ([AI] 31.25 mg/L) 0%.
